The subject of the data set is rodent carcinogenicity bioassays, tumor incidence. The experiment in a line: CCRIS carcinogenicity studies. A digest of the protocol:
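NCI-built, expert-reviewed records of carcinogenicity and related test outcomes (mutagenicity, tumor promotion/inhibition) compiled from published and report sources, historical span 1985-2011, not updated.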

Drawing on PubChem BioAssay AID1259411 (Chemical Carcinogenesis Research Information System (CCRIS), 2018), this text covers carcinogen call for five compounds.

Activity calls are given as the source filed them. The rule behind the calls is not given here.

In the case of `O=S1OCC2C(CO1)C1(Cl)C(Cl)=C(Cl)C2(Cl)C1(Cl)Cl` (stereo unspecified), the carcinogen call is “inactive; negative” (Species: MOUSE, Strain/Sex: B6C3F1/FEMALE, Route: ORAL, Dose: 0, 2.0, 3.9 PPM IN DIET, TWA, Dose: 0, 2.0, 3.9 PPM IN DIET, TWA); “inactive; negative” (Species: MOUSE, Strain/Sex: NMRI/FEMALE, Route: ORAL, Dose: 0, 2, 6, 18 PPM IN THE DIET FOR 24 MO (STUDY DURATION: 24 MO), Dose: 0, 2, 6, 18 PPM IN THE DIET FOR 24 MO (STUDY DURATION: 24 MO)); “inactive; negative” (Species: MOUSE, Strain/Sex: NMRI/MALE, Route: ORAL, Dose: 0, 2, 6, 18 PPM IN THE DIET FOR 24 MO (STUDY DURATION: 24 MO), Dose: 0, 2, 6, 18 PPM IN THE DIET FOR 24 MO (STUDY DURATION: 24 MO)); “inactive; negative” (Species: Mouse, Strain/Sex: NMRI Hoe:NMRKf (SPF71)/Female (60/Group), Route: Oral, Dose: 0 (sesame oil), 2, 6, 18 ppm 97.1% endosulfan in diet for 24 mo, study duration 24 mo., Dose: 0 (sesame oil), 2, 6, 18 ppm 97.1% endosulfan in diet for 24 mo, study duration 24 mo.); “inactive; negative” (Species: Mouse, Strain/Sex: NMRI Hoe:NMRKf (SPF71)/Male (60/Group), Route: Oral, Dose: 0 (sesame oil), 2, 6, 18 ppm 97.1% endosulfan in diet for 24 mo, study duration 24 mo., Dose: 0 (sesame oil), 2, 6, 18 ppm 97.1% endosulfan in diet for 24 mo, study duration 24 mo.); “inactive; negative” (Species: RAT, Strain/Sex: OSBORNE-MENDEL/FEMALE, Route: ORAL, Dose: 0, 223, 445 PPM IN DIET, TWA, Dose: 0, 223, 445 PPM IN DIET, TWA). Moreover, the carcinogen call (Species: RAT, Strain/Sex: SPRAGUE-DAWLEY/FEMALE, Route: ORAL, Dose: 0, 3, 7.5, 15, 75 PPM IN THE DIET FOR 104 WK (STUDY DURATION: 104 WK), Dose: 0, 3, 7.5, 15, 75 PPM IN THE DIET FOR 104 WK (STUDY DURATION: 104 WK)) was “inactive; negative”; the carcinogen call (Species: RAT, Strain/Sex: SPRAGUE-DAWLEY/MALE, Route: ORAL, Dose: 0, 3, 7.5, 15, 75 PPM IN THE DIET FOR 104 WK (STUDY DURATION: 104 WK), Dose: 0, 3, 7.5, 15, 75 PPM IN THE DIET FOR 104 WK (STUDY DURATION: 104 WK)) was “inactive; negative”; the carcinogen call (Species: Rat, Strain/Sex: Crl:CD (SD) BR/Female (50/Group), Route: Oral, Dose: 0, 3.0, 7.5, 15.0, 75.0 ppm in corn oil in diet for 104 wk, study duration 104 wk, Dose: 0, 3.0, 7.5, 15.0, 75.0 ppm in corn oil in diet for 104 wk, study duration 104 wk) was “inactive; negative”; the carcinogen call (Species: Rat, Strain/Sex: Crl:CD (SD) BR/Male (50/Group), Route: Oral, Dose: 0, 3.0, 7.5, 15.0, 75.0 ppm in corn oil in diet for 104 wk, study duration 104 wk, Dose: 0, 3.0, 7.5, 15.0, 75.0 ppm in corn oil in diet for 104 wk, study duration 104 wk) is “inactive; negative”.

For `O=C(Cn1ccnc1[N+](=O)[O-])NCc1ccccc1`, the carcinogen call is “active; positive” (Species: MOUSE, Strain/Sex: SWISS/FEMALE, Route: INTRAPERITONEAL, Dose: 0, 8 UG/G BW 1/D FOR 30 DAYS (STUDY DURATION: LIFETIME), Tumor Site: Type of Lesion: LYMPHATIC SYSTEM: LYMPHOMA) and “active; positive” (Species: MOUSE, Strain/Sex: SWISS/FEMALE, Route: INTRAPERITONEAL, Dose: 0, 8 UG/G BW 1/D FOR 60 DAYS (STUDY DURATION: LIFETIME), Tumor Site: Type of Lesion: LYMPHATIC SYSTEM: LYMPHOMA).

Turning to `CN1COCN(Cc2cnc(Cl)s2)/C1=N/[N+](=O)[O-]`, the carcinogen call (Species: MOUSE, Strain/Sex: TIF:MAGF/MALE, Route: DIET, Dose: 0, 50, 200, 500, 1250, 2500, 5000 PPM IN DIET FOR UP TO 50 WKS (STUDY DURATION: 50 WKS), Dose: 0, 50, 200, 500, 1250, 2500, 5000 PPM IN DIET FOR UP TO 50 WKS (STUDY DURATION: 50 WKS)) is “inactive; negative for tumors but apoptosis and necrosis observed in liver at doses of 500”; the carcinogen call (Species: RAT, Strain/Sex: TIF:RAIF/FEMALE, Route: ORAL (DIET), Dose: 0, 1000, 3000 PPM FOR 1, 10, 20, 30, 40, OR 50 WKS, Dose: 0, 1000, 3000 PPM FOR 1, 10, 20, 30, 40, OR 50 WKS) was “inactive; negative”.

On to `O=[N+]([O-])c1ccc2ccc3c([N+](=O)[O-])ccc4ccc1c2c43`, for which the carcinogen call (Species: HAMSTER, Strain/Sex: SYRIAN/FEMALE, Route: INTRATRACHEAL, Dose: 0, 0.5 MG IN 0.2 ML OF SALINE 1/WK FOR 26 WK (STUDY DURATION: 48 WK), Tumor Site: Type of Lesion: LUNG: ADENOCARCINOMA, HEMATOPOIETIC SYSTEM: LEUKEMIA) is “active; positive”; the carcinogen call (Species: HAMSTER, Strain/Sex: SYRIAN/MALE, Route: INTRAPERITONEAL, Dose: 0, 0.5 MG IN 0.2 ML OF SALINE 1/WK FOR 26 WK (STUDY DURATION: 48 WK), Tumor Site: Type of Lesion: LUNG: ADENOCARCINOMA, HEMATOPOIETIC SYSTEM: LEUKEMIA) was “active; positive”; the carcinogen call (Species: MOUSE, Strain/Sex: BALB/MALE, Route: SUBCUTANEOUS, Dose: 0, 0.1 MG IN DMSO 1/WK FOR 20 WK (STUDY DURATION: 60 WK), Tumor Site: Type of Lesion: INJECTION SITE: TUMOR) was “active; positive”; the carcinogen call (Species: RAT, Strain/Sex: F344/MALE, Route: SUBCUTANEOUS, Dose: 0, 0.2 MG 2/WK FOR 10 WK (STUDY DURATION: 320 D), Tumor Site: Type of Lesion: INJECTION SITE: SARCOMA) was “active; positive”; the carcinogen call (Species: RAT, Strain/Sex: F344/NS1C/MALE, Route: PULMONARY IMPLANT, Dose: 0, 0.003, 0.01, 0.03, 0.1, 0.15 MG AS A SUSPENSION IN EQUAL VOL OF BEESWAX AND TRICAPRYLIN IMPLANTED IN LEFT LUNG (STUDY, Dose: 0, 0.003, 0.01, 0.03, 0.1, 0.15 MG AS A SUSPENSION IN EQUAL VOL OF BEESWAX AND TRICAPRYLIN IMPLANTED IN LEFT LUNG (STUDY, Tumor Site: Type of Lesion: LUNG: TUMOR) is “active; positive”; the carcinogen call (Species: RAT, Strain/Sex: STRAIN CD/FEMALE, Route: INTRAGASTRIC, Dose: 0, 10 UMOL IN DMSO 3/WK FOR 4 WK (TOTAL DOSE: 16 UMOL/RAT) (STUDY DURATION: 78 WK), Tumor Site: Type of Lesion: PITUITARY GLAND: CARCINOMA) was “active; positive”. Moreover, the carcinogen call runs as follows: (Species: RAT, Strain/Sex: STRAIN CD/FEMALE, Route: INTRAPERITONEAL, Dose: 0, 10 UMOL IN DMSO 3/WK FOR 4 WK (TOTAL DOSE; 16 UMOL/RAT) (STUDY DURATION; 78 WK), Dose: 0, 10 UMOL IN DMSO 3/WK FOR 4 WK (TOTAL DOSE; 16 UMOL/RAT) (STUDY DURATION; 78 WK), Tumor Site: Type of Lesion: HEMATOPOIETIC SYSTEM: HISTIOCYTOMA) “active; positive”; (Species: RAT, Strain/Sex: STRAIN-CD/FEMALE, Route: SUBCUTANEOUS, Dose: 0, 6.3 UMOL (TOTAL DOSE) ADMINISTERED OVER 8 WK BEGINNING ON DAY OF BIRTH (STUDY DURATION: 67 WK), Tumor Site: Type of Lesion: INTEGUMENTARY SYSTEM: MALIGNANT FIBROUS HISTIOCYTOMA, HEMATOPOIETIC SYSTEM: LEUKEMIA) “active; positive”.

As to `O=S(=O)(c1ccc(Cl)cc1)c1ccc(Cl)cc1`, the carcinogen call (Species: MOUSE, Strain/Sex: B6C3F1/FEMALE, Route: ORAL, Dose: 0, 30, 100, 300 PPM IN DIET FOR 104-105 WK (STUDY DURATION: 104-105 WK), Dose: 0, 30, 100, 300 PPM IN DIET FOR 104-105 WK (STUDY DURATION: 104-105 WK)) is “inactive; negative”; the carcinogen call (Species: MOUSE, Strain/Sex: B6C3F1/MALE, Route: ORAL, Dose: 0, 30, 100, 300 PPM IN DIET FOR 104-105 WK (STUDY DURATION: 104-105 WK), Dose: 0, 30, 100, 300 PPM IN DIET FOR 104-105 WK (STUDY DURATION: 104-105 WK)) was “inactive; negative”; the carcinogen call (Species: RAT, Strain/Sex: F344/FEMALE, Route: ORAL, Dose: 0, 30, 100, 300 PPM IN DIET FOR 104-105 WK (STUDY DURATION: 104-105 WK), Dose: 0, 30, 100, 300 PPM IN DIET FOR 104-105 WK (STUDY DURATION: 104-105 WK)) is “inactive; negative”; the carcinogen call (Species: RAT, Strain/Sex: F344/MALE, Route: ORAL, Dose: 0, 10, 30, 100, 300 PPM IN DIET FOR 104-105 WK (STUDY DURATION: 104-105 WK), Dose: 0, 10, 30, 100, 300 PPM IN DIET FOR 104-105 WK (STUDY DURATION: 104-105 WK)) is “inactive; negative”.
